Measured values reported in patent US8859021B2, “Skin appearance through gene manipulation” (Sytheon, priority 2007, dated 2014).

Tested on: EpiDerm tissues
Settings: retinol 10 μg/ml, Sytenol A 5 μg/ml, 2 days

SMILES: C=C[C@@](C)(/C=C/c1ccc(O)cc1)CCC=C(C)C [Sytenol A, bakuchiol]
- Laminins up-regulation by Sytenol A relative to retinol: almost three-fold more than retinol
- Lecithin retinol acyltransferase up-regulation by Sytenol A relative to retinol: almost seven-fold higher than by retinol
- Fold Change, ACTN1 Alpha-actinin-1 (Alpha-actinin cytoskeletal isoform) (Table 8) (vs 0.1% DMSO control): +2.70 fold
- Fold Change, ACTN1 Alpha-actinin-1 (Alpha-actinin cytoskeletal isoform) (Table 9) (vs 0.1% DMSO control): +2.70 fold
- Fold Change, ACTN4 Alpha-actinin-4(F-actin cross-linking protein) (Table 8) (vs 0.1% DMSO control): +3.13 fold
- Fold Change, ACTN4 Alpha-actinin-4(F-actin cross-linking protein) (Table 9) (vs 0.1% DMSO control): +3.13 fold
- Fold Change, AFAP1L2 Actin filament-associated protein 1-like 2 (vs 0.1% DMSO control): +3.84 fold
- Fold Change, C16orf30 Claudin-like protein 24 (vs 0.1% DMSO control): No effect
- Fold Change, CDH1 Epithelia-cadherin precursor (E-cadherin) (Table 7) (vs 0.1% DMSO control): +21.56 fold
- Fold Change, CDH1 Epithelial-cadherin precursor (E-cadherin) E-Cad/CTF1 (Table 9) (vs 0.1% DMSO control): +21.56 fold
- Fold Change, CDH3 Cadherin-3-precursor (P-cadherin) (vs 0.1% DMSO control): +7.47 fold
- Fold Change, CDH19 Cadherin-19-precursor (vs 0.1% DMSO control): No effect
- Fold Change, CDH24 Cadherin-24-precursor (vs 0.1% DMSO control): +2.28 fold
- Fold Change, CDK5R1 Tau protein kinase II 23 kDa subunit (Cyclin-dependent kinase 5 activator 1 precursor (CDK5 activator 1)) (vs 0.1% DMSO control): +2.66 fold
- Fold Change, CLDN4 Claudin-4 (Clostridium perfringens enterotoxin receptor) (CPE-R) (vs 0.1% DMSO control): +5.92 fold
- Fold Change, CLDN5 Claudin-5 (Transmembrane protein deleted in VCFS) (vs 0.1% DMSO control): No effect
- Fold Change, CLDN6 Claudin-6 (Skullin 2) (vs 0.1% DMSO control): No effect
- Fold Change, CLDN7 Claudin-7 (CLDN-7) (vs 0.1% DMSO control): +46.09 fold
- Fold Change, CLDN11 Claudin-11 (Oligodendrocyte-specific protein) (vs 0.1% DMSO control): −4.01 fold
- Fold Change, CLDN12 Claudin-12 (vs 0.1% DMSO control): +2.00 fold
- Fold Change, CLDN16 Claudin-16 (Paracellin-1) (PCLN-1) (vs 0.1% DMSO control): +11.62 fold
- Fold Change, COL1A2 Collagen alpha-2 (I) chain precursor (Alpa-2 type I collagen) (vs 0.1% DMSO control): +1.85 fold
- Fold Change, COL3A1 Collagen alpha-1 (III) chain precursor (vs 0.1% DMSO control): No effect
- Fold Change, COL9A2 Collagen alpha-2 (IX) chain precursor (vs 0.1% DMSO control): +6.67 fold
- Fold Change, COL9A3 Collagen alpha-3 (IX) chain precursor (vs 0.1% DMSO control): +5.76 fold
- Fold Change, CTHRC1 Collagen triple helix repeat-containing protein 1 precursor (vs 0.1% DMSO control): −10.17 fold
- Fold Change, CTNNAL1 Alpha-catenin-related protein (ACRP) (Table 8) (vs 0.1% DMSO control): No effect
- Fold Change, CTNNAL1 Alpha-catenin-related protein (ACRP) (Table 9) (vs 0.1% DMSO control): No effect
- Fold Change, CYP26B1 Cytochrome P450 26B1 (Retinoic acid-metabolizing cytochrome) (vs 0.1% DMSO control): −1.74 fold
- Fold Change, Connective tissue growth factor precursor (Hypertrophic chondrocyte-specific protein 24) (vs 0.1% DMSO control): −2.56 fold
- Fold Change, DHRS9 NADP-dependent retinol dehydrogenase/reductase (vs 0.1% DMSO control): +11.56 fold
- Fold Change, DSC1 Desmocollin-1-precursor (DG2/DG3) (vs 0.1% DMSO control): −5.96 fold
- Fold Change, DSC2 Desmocollin-2-precursor (Desmocollin-3) (vs 0.1% DMSO control): +4.68 fold
- Fold Change, DSG1 Desmoglein-1-precursor (DG1) (vs 0.1% DMSO control): −2.26 fold
- Fold Change, DSG2 Desmoglein-2-precursor (vs 0.1% DMSO control): +20.15 fold
- Fold Change, DSG3 Desmoglein-3-precursor (vs 0.1% DMSO control): +4.25 fold
- Fold Change, DSG4 Desmoglein-4-precursor (vs 0.1% DMSO control): +10.59 fold
- Fold Change, ECM1 Extracellular matrix protein 1 precursor (vs 0.1% DMSO control): +2.00 fold
- Fold Change, ECM2 Extracellular matrix protein 2 precursor (vs 0.1% DMSO control): +4.10 fold
- Fold Change, ELA3B Elastase-3B precursor (Elastase IIIB) (vs 0.1% DMSO control): +6.58 fold
- Fold Change, F11R Junctional adhesion molecule 1 (JAM-1) (vs 0.1% DMSO control): +8.92 fold
- Fold Change, FLNB Actin-binding-like protein (vs 0.1% DMSO control): +5.87 fold
- Fold Change, FLRT2 Fibronectin-like-domain-containing leucine-rich transmembrane protein 2 (vs 0.1% DMSO control): No effect
- Fold Change, FLRT3 Fibronectin-like-domain-containing leucine-rich transmembrane protein 3 (vs 0.1% DMSO control): +6.18 fold
- Fold Change, FNDC7 Fibronectin type III domain containing 7 (vs 0.1% DMSO control): +9.14 fold
- Fold Change, Fibroblast growth factor 9 (HBGF-9) (vs 0.1% DMSO control): −2.34 fold
- Fold Change, Fibroblast growth factor 23 precursor (FGF-23) (Tumor-derived hypophosphatemia-inducing factor) (vs 0.1% DMSO control): −3.01 fold
- Fold Change, Fibroblast growth factor receptor 2 precursor (FGFR-2) (vs 0.1% DMSO control): +8.93 fold
- Fold Change, Fibroblast growth factor-binding protein 1 precursor (FGF-BP1) (vs 0.1% DMSO control): +2.69 fold
- Fold Change, GSN Gelsolin precursor (Actin-depolymerizing factor) (ADF) (vs 0.1% DMSO control): +3.19 fold
- Fold Change, HAS2 Hyaluronan synthase 2 (vs 0.1% DMSO control): No effect
- Fold Change, HAS3 Hyaluronan synthase 3 (vs 0.1% DMSO control): +19.29 fold
- Fold Change, HS3ST1 Heparan sulfate 3-O-sulfotransferase 1 (Table 6) (vs 0.1% DMSO control): +24.91 fold
- Fold Change, HS6ST1 Heparan sulfate 6-O-sulfotransferase 1 (vs 0.1% DMSO control): +1.79 fold
- Fold Change, HYAL1 Hyaluronidase-1-precursor (vs 0.1% DMSO control): No effect
- Fold Change, Heparin-binding EGF-like growth factor precursor (HB-EGF) (vs 0.1% DMSO control): +5.09 fold
- Fold Change, IGSF1 Immunoglobulin superfamily, member 1 isoform 1 (vs 0.1% DMSO control): +2.81 fold
- Fold Change, IGSF3 Immunoglobulin superfamily, member 3 isoform 2 (vs 0.1% DMSO control): +3.39 fold
- Fold Change, ITG5 Integrin beta-5 precursor (Table 7) (vs 0.1% DMSO control): No effect
- Fold Change, ITGA6 Integrin alpha-6 precursor (vs 0.1% DMSO control): +3.57 fold
- Fold Change, ITGB2 Integrin beta-2-precursor (vs 0.1% DMSO control): −7.67 fold
- Fold Change, ITGB4 Integrin beta-4 precursor (Table 7) (vs 0.1% DMSO control): +7.98 fold
- Fold Change, ITGB6 Integrin beta-6-precursor (Table 7) (vs 0.1% DMSO control): +7.71 fold
- Fold Change, ITGB8 Integrin beta-8 precursor (Table 3) (vs 0.1% DMSO control): +3.90 fold
- Fold Change, ITGB8 Integrin beta-8 precursor (Table 7) (vs 0.1% DMSO control): +3.90 fold
- Fold Change, Insulin growth factor-like family member 3 precursor (IGBP-3) (vs 0.1% DMSO control): −8.67 fold
- Fold Change, Insulin growth factor-like family member 4 precursor (IGBP-4) (vs 0.1% DMSO control): +2.41 fold
- Fold Change, Insulin-like growth factor-binding protein 6 precursor (IGBP-6) (vs 0.1% DMSO control): +4.03 fold
